Here are results for 14 molecules from patent US7326768B2, “Goodpasture antigen-binding protein isoforms and protein misfolded-mediated disorders” (priority 2003, dated 2008).

Data set [1] has as its system α3(IV)NC1-expressing cells (HEK293). Nature of the data set: α3(IV)NC1 conformer production in cultured cells (Western blot of culture media). In kind it is cell-based, human. To be noted: for α3(IV)NC1 conformer production in cultured cells: synthetic peptides 100-200 μM, organic compounds 5-50 μM, 24-48 h.
The next data set has as its target T1, recombinant human GPBP (Homo sapiens, UniProt Q9Y5P4).
T1 sequence (Q9Y5P4 1-624): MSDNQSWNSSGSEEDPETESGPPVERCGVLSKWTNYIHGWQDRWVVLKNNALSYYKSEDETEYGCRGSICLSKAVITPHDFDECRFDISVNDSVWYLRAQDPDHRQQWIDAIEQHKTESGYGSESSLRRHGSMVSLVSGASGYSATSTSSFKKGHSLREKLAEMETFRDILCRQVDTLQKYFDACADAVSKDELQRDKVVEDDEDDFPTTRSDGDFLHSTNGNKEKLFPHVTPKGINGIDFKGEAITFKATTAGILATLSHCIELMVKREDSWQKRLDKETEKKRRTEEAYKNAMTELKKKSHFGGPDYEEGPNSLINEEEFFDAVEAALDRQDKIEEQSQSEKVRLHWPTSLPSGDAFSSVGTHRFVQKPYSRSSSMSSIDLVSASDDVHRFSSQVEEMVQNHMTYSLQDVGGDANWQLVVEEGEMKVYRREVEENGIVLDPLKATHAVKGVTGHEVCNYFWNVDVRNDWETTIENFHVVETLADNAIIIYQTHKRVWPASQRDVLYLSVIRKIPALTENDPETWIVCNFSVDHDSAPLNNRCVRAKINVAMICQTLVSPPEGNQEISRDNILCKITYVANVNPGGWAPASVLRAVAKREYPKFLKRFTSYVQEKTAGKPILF
As to the kind of experiment: In vitro phosphorylation: GPBP kinase activity / autophosphorylation. As to conditions: for GPBP kinase activity in vitro (autophosphorylation): modulators at 200 μM, 10 min autophosphorylation reaction.

A further data set concerns the target GPBP-PrP^C complex (Homo sapiens, UniProt Q9Y5P4). The format is binding, bovine PrP^C.
The test system of a further data set is rat liver lysosomes. In kind it is in vivo. As to conditions: lysosomes from liver of leupeptin-treated vs untreated rats. As for the experimental part: FIG. 6. Identification of 91-kDa GPBP isoform in rat liver lysosomes and evidence for processing to 44-47-kDa isoforms. In A, similar amounts (˜50 μg) of lysosomal fractions from liver of untreated (C) or leupeptin-treated (L) rats were analyzed by Western blot using Mab6 antibodies. In B, lysosomal fractions as in A were further fractioned and whole (W), soluble (S) or non-soluble (M) fractions were similarly analyzed.
Subcellular fractioning and related studies. Rat liver subcellular fractionation was essentially performed as indicated in Aniento, F., Roche, E., Cuervo, A. M., Knecht, E. (1993). J. Biol. Chem. 268, 10463-10470. For some purposes lysosomal fractions (freshly prepared entire lysosomes) were dispersed in pure water and subjected to ten consecutive cycles of freezing and thawing to alter lysosomal membrane integrity (broken lysosomes). For other purposes, lysosomal fractions were similarly disrupted in the presence of protease inhibitors (PMSF 2 mM, leupeptin 0.2 mM and EDTA 2 mM) and subsequently centrifuged 130,000×g for 10 min at room temp to separate the soluble lysosomal fraction (also called here lysosomal extract) from the non-soluble fraction which, after rinse with 0.3 M saccharose in 10 mM MOPS pH 7.2, was used as the lysosomal membrane fraction.

Another data set concerns GPBP mRNA. Nature of the data set: Silencing of GPBP expression in 293 cells (Western blot). In kind it is cell-based, human. To be noted: 293 cells transfected with silencer plasmid. As to the method: FIG. 4. Cellular 91- and 120-kDa GPBP-related polypeptides are translation products of GPBP mRNA. Similar amounts (˜50 μg) of lysates from non-transfected 293 cells (1) or from 293 cells transfected with a plasmid encoding for SiGFP (2), SiGPBP (3), SiGPBP/Δ26-1 (4) SiGPBP/Δ26-2 (5), SiGPBP/Δ26-3 (6), SiGPBP/Δ26-4 (7) were analyzed by Western blot using the indicated antibodies.
SimRNA production. Silencers were generated using pSilencer 2.1-U6 hygro plasmid (Ambion) following manufacturers recommendations. The oligonucleotide pairs used were:
Recombinant protein expression in cultured cells. The pcDNA3-based contructs containing the cDNA encoding the different human proteins of interest were used to transfect human 293 cells using standard calcium phosphate procedures in ProFection Mammalian Transfection System (Promega). 24-48 h after transfection cell lysates were used for Western blot, precipitation or immunoprecipitation studies. Cells expressing GPBP or derived deletion mutants were collected on ice with 50 mM Tris HCl pH 7.4, 0.05% Triton X-100, 1 mM PMSF and 5 μg/ml leupeptin, disrupted by vortex and insoluble material discarded by centrifugation at 14.000 rpm in Eppendorf at 4° C. for 10 min and supernatant used for Western blot analysis.
For orientation: Immunoblotting shows a protein as a band on a membrane.

In another data set the target is T2, GPBP (Homo sapiens, UniProt Q9Y5P4).
T2 sequence (Q9Y5P4 1-299): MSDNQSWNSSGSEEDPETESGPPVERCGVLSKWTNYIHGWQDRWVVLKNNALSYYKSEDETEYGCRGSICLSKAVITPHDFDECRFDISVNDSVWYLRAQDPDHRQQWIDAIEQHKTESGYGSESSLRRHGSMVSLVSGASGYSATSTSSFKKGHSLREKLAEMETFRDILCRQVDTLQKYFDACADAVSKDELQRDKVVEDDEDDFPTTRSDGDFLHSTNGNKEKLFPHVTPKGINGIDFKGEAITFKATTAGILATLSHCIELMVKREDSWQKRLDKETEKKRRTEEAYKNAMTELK
As to the kind of experiment: Auto-phosphorylation of GPBP deletion mutant at pH 5. The format is biochemical.

“Also recorded” adds a separate entry of the source.

For the molecule `CN([C@@H](Cc1ccc(OS(=O)(=O)c2cccc3cnccc23)cc1)C(=O)N1CCN(c2ccccc2)CC1)S(=O)(=O)c1cccc2cnccc12` [KN62, 1-[N,O-bis-(5-Isoquinolinesulfonyl)-N-methyl-L-tyrosyl]-4-phenylpiperazine, reference compound], the “α3(IV)NC1 conformer production in cultured cells” value in data set [1] was “reduced cell conformer production”. At recombinant human GPBP, the “GPBP kinase activity in vitro (autophosphorylation)” value (“GPBP kinase activity in vitro” for short) is listed as “inhibited GPBP kinase activity in vitro to a larger extent than KN93”.
For `Cl.N` [NH4Cl], the “α3(IV)NC1 conformer production” value in data set [1] (20 mM NH4Cl) is given as “reduced conformer production”.
On to `CC[C@@H](C)[C@@H](NC(=O)[C@@H](CS)NC(=O)[C@@H](Cc1c[nH]cn1)NC(=O)[C@@H](CO)NC(=O)[C@@H](CC(C)C)NC(=O)[C@H](NC(=O)[C@@H](C)NC(=O)[C@@H](CC(C)C)NC(C)=O)[C@H](C)O)C(=O)N[C@H](CCC(=O)O)C(=O)N[C@H](CC(C)C)C(=O)N[C@H](CCSC)C(=O)N[C@@H](C(=O)N[C@H](CCCCN)C(=O)N[C@H](CCCNC(=N)N)C(N)=O)C(C)C` [Q2D], for which the “GPBP-PrP^C complex formation” value at GPBP-PrP^C complex is “fully inhibited”. Moreover, the “effect on GPBP autophosphorylation at decreasing concentrations” value at recombinant human GPBP (decreasing concentrations up to 10 μM) is on record as “inhibition”. In addition, the “GPBP kinase activity in vitro” value on recombinant human GPBP is “more efficient inhibiting”; at recombinant human GPBP (listed as D-amino acid version of Q2), “more potent inhibitory activity”.
As to `CC[C@H](C)[C@H](NC(=O)[C@H](CS)NC(=O)[C@H](Cc1c[nH]cn1)NC(=O)[C@H](CO)NC(=O)[C@H](CC(C)C)NC(=O)[C@@H](NC(=O)[C@H](C)NC(=O)[C@H](CC(C)C)NC(C)=O)[C@@H](C)O)C(=O)N[C@@H](CCC(=O)O)C(=O)N[C@@H](CC(C)C)C(=O)N[C@@H](CCSC)C(=O)N[C@H](C(=O)N[C@@H](CCCCN)C(=O)N[C@@H](CCCNC(=N)N)C(N)=O)C(C)C` [Q2L], at GPBP-PrP^C complex, the “GPBP-PrP^C complex formation” value was “efficiently inhibited”.
For `CC(=O)N[C@@H](CC(C)C)C(=O)N[C@@H](CC(C)C)C(=O)N[C@H](C=O)CCCNC(=N)N` [leupeptin], the “presence of α3(IV)NC1 proteolytic products” value in data set [1] is reported as “inhibited the presence of proteolytic products”. Besides, in the data set with rat liver lysosomes, the “lysosomal GPBP immunoreactive polypeptides” value is recorded as 44-47-kDa polypeptides significantly diminished.
As to `CN[C@@H]1C[C@H]2O[C@@](C)([C@@H]1OC)n1c3ccccc3c3c4c(c5c6ccccc6n2c5c31)C(=O)NC4` [staurosporine, reference compound], the “GPBP kinase activity in vitro” value on recombinant human GPBP is recorded as “efficiently impaired”.
For the molecule Ac-EKTAGKPILF-OH [Q4], the “α3(IV)NC1 conformer production in cultured cells” value in data set [1] is “reduction in conformer production; also recorded: more limited inhibitory effect”. In addition, the “GPBP kinase activity in vitro” value with recombinant human GPBP is on record as “inhibited GPBP autophosphorylation in a more limited manner; also recorded: poor inhibitor”.
On to “Ac-VLMASLETLCRIHKI-NH2 [Q2Lr, reference compound]”, for which, at GPBP-PrP^C complex, the “GPBP-PrP^C complex formation” value is on record as “no effect on complex formation”.
Take “SiGPBP/Δ26-1: silencer of GPBP and/or GPBPΔ26 expression, SEQ ID NO:47 (AAACUACAUUCAUGGGUGGCA; listed as RNA, chemistry not given here)”: in the data set with GPBP mRNA, the “GPBP expression (endogenous 91- and 120-kDa GPBP)” value (shortened to “GPBP expression”) is “diminish GPBP and/or GPBPΔ26 expression”.
As for “SiGPBP/Δ26-2: silencer of GPBP and/or GPBPΔ26 expression, SEQ ID NO:48 (guide AAACAGAGUAUGGCUGCAGAG; listed as RNA, chemistry not given here)”, the “GPBP expression” value is recorded as “silenced endogenous GPBP more efficiently than SiGPBP/Δ26-4” with GPBP mRNA and “diminish GPBP and/or GPBPΔ26 expression” with GPBP mRNA (listed as siGPBPΔ26-2).
In the case of “SiGPBP/Δ26-3: silencer of GPBP and/or GPBPΔ26 expression, SEQ ID NO:49 (guide AAGUACUUUGAUGCCUGUGCU; listed as RNA, chemistry not given here)”, the “GPBP expression” value in the data set with GPBP mRNA is on record as “diminish GPBP and/or GPBPΔ26 expression”.
In the case of “SiGPBP/Δ26-4: silencer of GPBP and/or GPBPΔ26 expression, SEQ ID NO:50 (guide AAAGGCGUCACAGGACAUGAA; listed as RNA, chemistry not given here)”, the “GPBP expression” value in the data set on GPBP mRNA is reported as “diminish GPBP and/or GPBPΔ26 expression”.
On to “SiGPBP: silencer of GPBP expression, SEQ ID NO:51 (AAGCCCUAUAGUCGCUCUUCC; listed as RNA, chemistry not given here)”, for which the “GPBP expression” value in the data set with GPBP mRNA is reported as “diminish GPBP and/or GPBPΔ26 expression”.

B1: residues 1-299 of GPBP: C-terminal deletion mutant of GPBP with approximately 44-kDa molecular mass, SEQ ID NO:38 (protein)
chain: T2 sequence (Q9Y5P4 1-299)
modifications: Derived sequence
B1: the auto-phosphorylation activity result with GPBP is listed as “greater auto-phosphorylation activity at pH 5 than full sized GPBP”.
